Tested on: 327498-153-R-J2-PDC multicell spheroid viability
Assay: Anticancer human tumor 327498-153-R-J2-PDC patient-derived uterine carcinosarcoma cell line growth inhibition [IpAb]
Details: for IC50: curve of first compound; for viability, T/C: stronger effect = lower value
Text: Combinatorial screen of targeted agents with ipatasertib and abemaciclib in multi-cell type tumor spheroids
A high-throughput screen of multi-cell type tumor spheroids was designed to identify active combinations of targeted small molecules and ipatasertib or abemaciclib. Complex spheroids include a stromal component modeled by human endothelial cells (HUVEC) and fibroblasts modeled by human mesenchymal stem cells (MSCs). The concentration ranges selected for each drug and investigational agent were based upon clinically achievable concentrations if the clinical Cmax of the agent was known.
Compounds. The drugs and investigational agents: ipatasertib (NSC767898), abemaciclib(NSC768073), selumetinib (NSC741078), trametinib (758246), adavosertib (NSC754352), everolimus (NSC733504), sapanisertib (NSC764658), vemurafenib (NSC761431), venetoclax (NSC766270), copanlisib (NSC809693), apelisib (NSC765974), palbociblib (NSC758247), vemurafenib (NSC761431), dabrafenib (NSC764134), ravoxertinib (NSC781343), BMS-387032 (NSC767048), sotorasib (NSC818433), talazoparib (NSC767125) and afursertib (NSC778305), were obtained from the National Cancer Institute (NCI) Developmental Therapeutics Program Chemical Repository. The FDA-approved anticancer drug set is available from the NCI Developmental Therapeutics Program. […] The stock solutions were prepared in dimethyl sulfoxide (DMSO, Sigma-Aldrich, St. Louis, MO, cat. D2650) at 800-fold the tested concentration and stored at -70 degrees C prior to their use. All drugs and investigational agents were tested over a range starting from a high concentration at or near the clinical Cmax and decreasing in half-log increments. If the clinical Cmax for an agent had not been determined, the highest concentration tested was 10 microM.
NCI60 Cell Culture. NCI60 cell lines were obtained from the NCI Developmental Therapeutics Program Tumor Repository. For each lot of cells, the Repository performed Applied Biosystems AmpFLSTR Identifiler testing with PCR amplification to confirm consistency with the published Identifier STR profile for each cell line. Cells were kept in continuous culture for no more than 20 passages. The optimal seeding densities for each of the cell lines at each time point assessed were determined prior to performing the concentration response studies. Briefly, the NCI60 human tumor lines were grown as monolayers in RPMI 1640 medium supplemented with 10% FBS and 2 mmol/L L-glutamine.
An additional 9 lines were from the NCI60 cell line panel including MDA-MB-231 breast carcinoma, MDA-MB-468 breast carcinoma, MCF7 breast carcinoma, Hs578T breast carcinoma, MALME-3M melanoma, SK-MEL-2 melanoma, SK-OV-3 ovarian carcinoma, DU-145 prostate carcinoma, PC-3 prostate carcinoma, all cell lines along with major genetic alterations are listed on Table 2. Pooled donor human umbilical vein endothelial cells (HUVEC, Lonza, cat. CC-2519) and human mesenchymal stem cells (hMSC, Lonza, cat. PT-2501) were purchased from Lonza (Walkersville, MD).
PDMR cell lines were grown in complete medium (DC medium): Dulbecco's modified Eagle's medium (DMEM)/F12 supplemented with 5% fetal bovine serum (FBS), 2 mM L-glutamine, 100 U/mL penicillin and 100 µg/ml streptomycin, 0.4 µg/ml hydrocortisone, 10 ng/ml epidermal growth factor (EGF) recombinant human protein, 24 µg/mL adenine, and 0.1 mg/mL primocin. During culture from frozen stock vials, PDMR cells were cultured in the same medium containing 10 µM Y-27632 (see Table 3). The PDCs were cultured in complete DMEM/F12 media without 10 microM Y-27632 dihydrochloride for at least two passages prior to the screen. The pooled donor HUVEC and hMSC were cultured in endothelial cell growth medium 2 (PromoCell, Heidelberg, Germany, cat. C-22011) and mesenchymal stem cell growth medium 2 (PromoCell, cat. C-28009), respectively. For all experiments, HUVEC and hMSC were used at passages </=5.
[…]

[1] = second compound 0.1 µM, first compound 0.0316 µM
[2] = second compound 0.1 µM, first compound 0.1 µM
[3] = second compound 0.1 µM, first compound 0.316 µM
[4] = second compound 0.1 µM, first compound 1 µM
[5] = second compound 0.1 µM, first compound 3.16 µM
[6] = second compound 0.1 µM, first compound 10 µM
[7] = second compound 0.316 µM, first compound 0.0316 µM
[8] = second compound 0.316 µM, first compound 0.1 µM
[9] = second compound 0.316 µM, first compound 0.316 µM
[10] = second compound 0.316 µM, first compound 1 µM
[11] = second compound 0.316 µM, first compound 3.16 µM
[12] = second compound 0.316 µM, first compound 10 µM
[13] = second compound 1 µM, first compound 0.0316 µM
[14] = second compound 1 µM, first compound 0.1 µM
[15] = second compound 1 µM, first compound 0.316 µM
[16] = second compound 1 µM, first compound 1 µM
[17] = second compound 1 µM, first compound 3.16 µM
[18] = second compound 1 µM, first compound 10 µM
[19] = second compound 3.16 µM, first compound 0.0316 µM
[20] = second compound 3.16 µM, first compound 0.1 µM
[21] = second compound 3.16 µM, first compound 0.316 µM
[22] = second compound 3.16 µM, first compound 1 µM
[23] = second compound 3.16 µM, first compound 3.16 µM
[24] = second compound 3.16 µM, first compound 10 µM
[25] = second compound 10 µM, first compound 0.0316 µM
[26] = second compound 10 µM, first compound 0.1 µM
[27] = second compound 10 µM, first compound 0.316 µM
[28] = second compound 10 µM, first compound 1 µM
[29] = second compound 10 µM, first compound 3.16 µM
[30] = second compound 10 µM, first compound 10 µM
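Also: spheroids exposed to agents for 7 days.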
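For viability, T/C in this document: 100% = DMSO vehicle control viability.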

## C=CCn1c(=O)c2cnc(Nc3ccc(N4CCN(C)CC4)cc3)nc2n1-c1cccc(C(C)(C)O)n1 + CC(C)NCC(C(=O)N1CCN(c2ncnc3c2C(C)CC3O)CC1)c1ccc(Cl)cc1
Second compound 0.1 µM
  IC50: 259 nM
Second compound 0.316 µM
  IC50: 151 nM
Second compound 1 µM
  IC50: 101 nM
Second compound 3.16 µM
  IC50: < 31.6 nM
Second compound 10 µM
  IC50: < 31.6 nM
[1]
  viability, T/C: 90.3%
[2]
  viability, T/C: 83.2%
[3]
  viability, T/C: 43.2%
[4]
  viability, T/C: 3.61%
[5]
  viability, T/C: 3.91%
[6]
  viability, T/C: 6.69%
[7]
  viability, T/C: 73.8%
[8]
  viability, T/C: 65.2%
[9]
  viability, T/C: 22.6%
[10]
  viability, T/C: 3.04%
[11]
  viability, T/C: 3.47%
[12]
  viability, T/C: 6.17%
[13]
  viability, T/C: 49.6%
[14]
  viability, T/C: 50.5%
[15]
  viability, T/C: 17.3%
[16]
  viability, T/C: 3.25%
[17]
  viability, T/C: 2.88%
[18]
  viability, T/C: 5.72%
[19]
  viability, T/C: 45.1%
[20]
  viability, T/C: 35.2%
[21]
  viability, T/C: 11.5%
[22]
  viability, T/C: 3.53%
[23]
  viability, T/C: 3.4%
[24]
  viability, T/C: 4.64%
[25]
  viability, T/C: 30.4%
[26]
  viability, T/C: 27.4%
[27]
  viability, T/C: 8.25%
[28]
  viability, T/C: 3%
[29]
  viability, T/C: 3.44%
[30]
  viability, T/C: 4.49%

## CC(C)n1nc(-c2ccc3oc(N)nc3c2)c2c(N)ncnc21 + CC(C)NCC(C(=O)N1CCN(c2ncnc3c2C(C)CC3O)CC1)c1ccc(Cl)cc1
Second compound 0.1 µM
  IC50: 5.3 nM
Second compound 0.316 µM
  IC50: 1.76 nM
Second compound 1 µM
  IC50: 0.442 nM
Second compound 3.16 µM
  IC50: < 0.316 nM
Second compound 10 µM
  IC50: < 0.316 nM
Second compound 0.1 µM, first compound 0.000316 µM
  viability, T/C: 83.5%
Second compound 0.1 µM, first compound 0.001 µM
  viability, T/C: 80%
Second compound 0.1 µM, first compound 0.00316 µM
  viability, T/C: 60.3%
Second compound 0.1 µM, first compound 0.01 µM
  viability, T/C: 36.6%
[1]
  viability, T/C: 20.7%
[2]
  viability, T/C: 15.7%
Second compound 0.316 µM, first compound 0.000316 µM
  viability, T/C: 74.6%
Second compound 0.316 µM, first compound 0.001 µM
  viability, T/C: 56.5%
Second compound 0.316 µM, first compound 0.00316 µM
  viability, T/C: 44%
Second compound 0.316 µM, first compound 0.01 µM
  viability, T/C: 24.4%
[7]
  viability, T/C: 16.6%
[8]
  viability, T/C: 13.3%
Second compound 1 µM, first compound 0.000316 µM
  viability, T/C: 55.1%
Second compound 1 µM, first compound 0.001 µM
  viability, T/C: 36.9%
Second compound 1 µM, first compound 0.00316 µM
  viability, T/C: 28.4%
Second compound 1 µM, first compound 0.01 µM
  viability, T/C: 16.8%
[13]
  viability, T/C: 10.6%
[14]
  viability, T/C: 11%
Second compound 3.16 µM, first compound 0.000316 µM
  viability, T/C: 39.2%
Second compound 3.16 µM, first compound 0.001 µM
  viability, T/C: 29.1%
Second compound 3.16 µM, first compound 0.00316 µM
  viability, T/C: 19.9%
Second compound 3.16 µM, first compound 0.01 µM
  viability, T/C: 11.5%
[19]
  viability, T/C: 8.42%
[20]
  viability, T/C: 7.91%
Second compound 10 µM, first compound 0.000316 µM
  viability, T/C: 26.9%
Second compound 10 µM, first compound 0.001 µM
  viability, T/C: 24%
Second compound 10 µM, first compound 0.00316 µM
  viability, T/C: 13.7%
Second compound 10 µM, first compound 0.01 µM
  viability, T/C: 9.73%
[25]
  viability, T/C: 6.51%
[26]
  viability, T/C: 6.09%

## CC1(C)CCC(CN2CCN(c3ccc(C(=O)NS(=O)(=O)c4ccc(NCC5CCOCC5)c([N+](=O)[O-])c4)c(Oc4cnc5[nH]ccc5c4)c3)CC2)=C(c2ccc(Cl)cc2)C1 + CC(C)NCC(C(=O)N1CCN(c2ncnc3c2C(C)CC3O)CC1)c1ccc(Cl)cc1
Second compound 0.1 µM
  IC50: 5370 nM
Second compound 0.316 µM
  IC50: 3980 nM
Second compound 1 µM
  IC50: 3500 nM
Second compound 3.16 µM
  IC50: < 31.6 nM
Second compound 10 µM
  IC50: < 31.6 nM
[1]
  viability, T/C: 92.4%
[2]
  viability, T/C: 96.7%
[3]
  viability, T/C: 88.8%
[4]
  viability, T/C: 91.6%
[5]
  viability, T/C: 84.7%
[6]
  viability, T/C: 9.23%
[7]
  viability, T/C: 84.1%
[8]
  viability, T/C: 76.2%
[9]
  viability, T/C: 73%
[10]
  viability, T/C: 71.5%
[11]
  viability, T/C: 62.9%
[12]
  viability, T/C: 5.02%
[13]
  viability, T/C: 61.5%
[14]
  viability, T/C: 57.1%
[15]
  viability, T/C: 56%
[16]
  viability, T/C: 51.7%
[17]
  viability, T/C: 54.8%
[18]
  viability, T/C: 2.82%
[19]
  viability, T/C: 43.8%
[20]
  viability, T/C: 43.9%
[21]
  viability, T/C: 43.5%
[22]
  viability, T/C: 42.7%
[23]
  viability, T/C: 42.9%
[24]
  viability, T/C: 1.99%
[25]
  viability, T/C: 34.7%
[26]
  viability, T/C: 30.8%
[27]
  viability, T/C: 31.3%
[28]
  viability, T/C: 31.1%
[29]
  viability, T/C: 26.6%
[30]
  viability, T/C: 0.91%

## CCCS(=O)(=O)Nc1ccc(F)c(C(=O)c2c[nH]c3ncc(-c4ccc(Cl)cc4)cc23)c1F + CC(C)NCC(C(=O)N1CCN(c2ncnc3c2C(C)CC3O)CC1)c1ccc(Cl)cc1
Second compound 0.1 µM
  IC50: > 10000 nM
Second compound 0.316 µM
  IC50: > 10000 nM
Second compound 1 µM
  IC50: > 10000 nM
Second compound 3.16 µM
  IC50: 2360 nM
Second compound 10 µM
  IC50: < 31.6 nM
[1]
  viability, T/C: 94.3%
[2]
  viability, T/C: 101%
[3]
  viability, T/C: 96.7%
[4]
  viability, T/C: 101%
[5]
  viability, T/C: 101%
[6]
  viability, T/C: 86.7%
[7]
  viability, T/C: 72.2%
[8]
  viability, T/C: 74%
[9]
  viability, T/C: 80.6%
[10]
  viability, T/C: 81.1%
[11]
  viability, T/C: 85.3%
[12]
  viability, T/C: 63%
[13]
  viability, T/C: 57.5%
[14]
  viability, T/C: 58.2%
[15]
  viability, T/C: 62.9%
[16]
  viability, T/C: 76.3%
[17]
  viability, T/C: 74.1%
[18]
  viability, T/C: 49%
[19]
  viability, T/C: 49.6%
[20]
  viability, T/C: 50.3%
[21]
  viability, T/C: 52%
[22]
  viability, T/C: 56%
[23]
  viability, T/C: 54.4%
[24]
  viability, T/C: 42.1%
[25]
  viability, T/C: 40.1%
[26]
  viability, T/C: 41.8%
[27]
  viability, T/C: 44.2%
[28]
  viability, T/C: 40.7%
[29]
  viability, T/C: 41.2%
[30]
  viability, T/C: 23.4%
